The values below come from patent US7892778B2, “Method of screening for gamma-secretase activity” (Sanofi-Aventis Deutschland GmbH, priority 2003, dated 2011).

Common to all, as to assay type: cell-based, human
In test [1] the test system is γ-secretase. Description: Transiently transfected HEK293 cells (SP3-C55-GAL4/VP16 + pGL2-MRG5 luciferase reporter), luciferase activity. Particulars: HEK293 transiently co-transfected with SP3-C55-GAL4/VP16 vector and pGL2-MRG5 luciferase reporter vector; read-out: IC50, inhibition of luciferase activity and Aβ-production. The protocol:
(§1) HEK293 cells were co-transfected with the SP3-C55-GAL4/VP16 vector (0.03 μg) and the pGL2-MRG5 luciferase reporter vector (1 μg) in Multi-Well 12 plates.
(§2) Luciferase activity was quantified by the Bright-Glo Luciferase Assay kit (Promega). Aβ in the cell medium was quantified by ELISA, using the antibodies 4G8 and 6E10 (from Senetek), as described in Example 11. These antibodies are specific for amino acids 17-24 (4G8) and 1-17 (6E10) of the Aβ-peptide.
On the technique in general: A reporter such as luciferase makes a cellular process visible.

In test [2] the test system is γ-secretase. Kind of test: Transiently transfected HEK293 cells, Aβ in the cell medium by ELISA (4G8/6E10). Particulars: HEK293 transiently co-transfected; Aβ in cell medium quantified by ELISA.
Description: For expression in mammalian cells, the signal peptide in SP2-C-GAL4/VP16-100 was replaced, as described in Example 8, with a mammalian signal peptide derived from the basal membrane protein BM40, which is known for high level expression (SP3; SEQ ID NO. 13). Processing of γ-secretase was monitored by quantifying the secretion of Aβ into the culture medium. The secreted Aβ was detected by a sandwich ELISA using monoclonal antibodies 6E10 and biotinylated 4G8 (Senetek PLC, Napa, Calif., USA; cf. Kim et al., 1990) as capture and detection antibodies, respectively.
as §1, §2

For test [3], the system named is γ-secretase. Description: Stably transfected HEK293 cell clone (SP3-C55-GAL4/VP16 + MRG5-luciferase), luciferase activity. Particulars: stably double-transfected HEK293 clone, 24 h treatment; read-out: IC50, inhibition of luciferase activity. As to the method: HEK293 cells (Human Embryonic Kidney cell line, (ATCC)) were co-transfected with the plasmid SP3-C55-GAL4/VP16 and the luciferase reporter plasmid PGL2-MRG5(described in Example 2).
Subsequently, stable cell lines were selected by incubation with 400 μg/ml Geneticin (GibcoBRL) to select for Neomycin resistant clones and thereafter characterized for stable expression of SP3-C55-GAL4/VP16 and luciferase.
A clone of HEK293 cells that stably express both the SP3-C55-GAL4/VP16 and the MRG5-luciferase constructs was identified according to Example 14.
For the identification of γ-secretase inhibitors, stably double-transfected HEK293 cells (see Example 14) are incubated, in Multi-Well 96 plates, in the presence of the compound(s) under investigation (e.g., compound library screening) at a concentration 10 μM or less in the assay, and luciferase activity is determined 24 hours later. Luciferase activity can be quantified with the Luciferase Assay System kit (Promega), the Bright-Glo Luciferase Assay kit (Promega), or any other method for luciferase quantification. A decrease in luciferase activity reflects a decrease in γ-secretase activity.

One may read the IC50 as the midpoint of a concentration-inhibition curve. `C[C@H](NC(=O)Cc1cc(F)cc(F)c1)C(=O)N[C@H](C(=O)OC(C)(C)C)c1ccccc1` [DAPT]: the values for the IC50 in the test on γ-secretase [1] and in the test with γ-secretase [3] were 14 nM and 230 nM, respectively. Also, in the test with γ-secretase [2], the Aβ-production result is reported as “inhibited dose-dependently”.
Turning to `CC(C)C[C@H](NC(=O)[C@H](Cc1ccccc1)C[C@@H](O)[C@H](Cc1ccccc1)NC(=O)OC(C)(C)C)C(=O)N[C@@H](Cc1ccccc1)C(N)=O` [L-685,458], the IC50 in the test on γ-secretase [1] was 19 nM; in the test on γ-secretase [3], 130 nM. Also, the Aβ-production entry in the test on γ-secretase [2] is “inhibited dose-dependently”.
